Patent US20250243196A1, “CITRON KINASE INHIBITORS” (The Cleveland Clinic Foundation, priority 2021, published 2025)

Columns and labels:
Assay in all cases: KinaseProfiler panel
Format in all cases: biochemical
Settings in all cases: activity remaining
HIPK1(h) = HIPK1(h) (Homo sapiens (Human), UniProt Q86Z02); design: dose or concentration left out as unconfirmed
MLCK(h) = MLCK(h) (Homo sapiens (Human), UniProt Q15746); design: dose or concentration left out as unconfirmed
MRCKβ(h) = MRCKβ(h) (Homo sapiens (Human), UniProt Q9Y5S2); design: dose or concentration left out as unconfirmed
DCAMKL1(h) = DCAMKL1(h) (Homo sapiens (Human), UniProt O15075); design: dose or concentration left out as unconfirmed
Rsk3(h) = Rsk3(h) (Homo sapiens (Human), UniProt Q15349); design: dose or concentration left out as unconfirmed
ATM(h) = ATM(h) (Homo sapiens (Human), UniProt Q13315); design: dose or concentration left out as unconfirmed
NEK4(h) = NEK4(h) (Homo sapiens (Human), UniProt P51957); design: dose or concentration left out as unconfirmed
Flt3(h) = Flt3(h) (Homo sapiens (Human), UniProt P36888); design: dose or concentration left out as unconfirmed
Sequence of Flt3(h) (P36888 27-993): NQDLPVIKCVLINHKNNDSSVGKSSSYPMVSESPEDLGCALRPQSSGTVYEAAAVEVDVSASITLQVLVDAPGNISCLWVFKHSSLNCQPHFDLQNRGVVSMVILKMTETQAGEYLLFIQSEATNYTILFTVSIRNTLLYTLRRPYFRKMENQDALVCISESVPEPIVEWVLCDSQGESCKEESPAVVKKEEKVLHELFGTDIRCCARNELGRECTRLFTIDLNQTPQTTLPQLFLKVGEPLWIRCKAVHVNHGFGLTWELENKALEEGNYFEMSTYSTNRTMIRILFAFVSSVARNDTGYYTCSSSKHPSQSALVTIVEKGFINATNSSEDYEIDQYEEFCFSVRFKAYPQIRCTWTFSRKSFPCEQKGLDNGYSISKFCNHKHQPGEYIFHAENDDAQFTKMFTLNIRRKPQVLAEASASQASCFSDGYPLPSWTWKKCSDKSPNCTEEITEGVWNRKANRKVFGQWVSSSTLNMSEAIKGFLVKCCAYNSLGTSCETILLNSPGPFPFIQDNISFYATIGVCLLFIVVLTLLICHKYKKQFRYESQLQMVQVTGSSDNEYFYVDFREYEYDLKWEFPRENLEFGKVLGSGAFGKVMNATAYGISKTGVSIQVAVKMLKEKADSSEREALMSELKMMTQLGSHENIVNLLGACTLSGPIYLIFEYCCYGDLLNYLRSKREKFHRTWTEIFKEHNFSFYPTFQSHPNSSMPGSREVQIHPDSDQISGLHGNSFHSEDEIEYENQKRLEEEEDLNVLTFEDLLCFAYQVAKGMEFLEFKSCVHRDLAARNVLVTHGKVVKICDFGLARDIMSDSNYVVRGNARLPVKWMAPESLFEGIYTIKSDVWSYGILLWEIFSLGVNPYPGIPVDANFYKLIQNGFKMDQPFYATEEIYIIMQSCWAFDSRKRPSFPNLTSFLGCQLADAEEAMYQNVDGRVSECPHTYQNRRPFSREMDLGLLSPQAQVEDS

mTOR/FKBP12(h) = mTOR/FKBP12(h) (Homo sapiens (Human), UniProt P42345); design: dose or concentration left out as unconfirmed
Sequence of mTOR/FKBP12(h) (P42345 1362-2549): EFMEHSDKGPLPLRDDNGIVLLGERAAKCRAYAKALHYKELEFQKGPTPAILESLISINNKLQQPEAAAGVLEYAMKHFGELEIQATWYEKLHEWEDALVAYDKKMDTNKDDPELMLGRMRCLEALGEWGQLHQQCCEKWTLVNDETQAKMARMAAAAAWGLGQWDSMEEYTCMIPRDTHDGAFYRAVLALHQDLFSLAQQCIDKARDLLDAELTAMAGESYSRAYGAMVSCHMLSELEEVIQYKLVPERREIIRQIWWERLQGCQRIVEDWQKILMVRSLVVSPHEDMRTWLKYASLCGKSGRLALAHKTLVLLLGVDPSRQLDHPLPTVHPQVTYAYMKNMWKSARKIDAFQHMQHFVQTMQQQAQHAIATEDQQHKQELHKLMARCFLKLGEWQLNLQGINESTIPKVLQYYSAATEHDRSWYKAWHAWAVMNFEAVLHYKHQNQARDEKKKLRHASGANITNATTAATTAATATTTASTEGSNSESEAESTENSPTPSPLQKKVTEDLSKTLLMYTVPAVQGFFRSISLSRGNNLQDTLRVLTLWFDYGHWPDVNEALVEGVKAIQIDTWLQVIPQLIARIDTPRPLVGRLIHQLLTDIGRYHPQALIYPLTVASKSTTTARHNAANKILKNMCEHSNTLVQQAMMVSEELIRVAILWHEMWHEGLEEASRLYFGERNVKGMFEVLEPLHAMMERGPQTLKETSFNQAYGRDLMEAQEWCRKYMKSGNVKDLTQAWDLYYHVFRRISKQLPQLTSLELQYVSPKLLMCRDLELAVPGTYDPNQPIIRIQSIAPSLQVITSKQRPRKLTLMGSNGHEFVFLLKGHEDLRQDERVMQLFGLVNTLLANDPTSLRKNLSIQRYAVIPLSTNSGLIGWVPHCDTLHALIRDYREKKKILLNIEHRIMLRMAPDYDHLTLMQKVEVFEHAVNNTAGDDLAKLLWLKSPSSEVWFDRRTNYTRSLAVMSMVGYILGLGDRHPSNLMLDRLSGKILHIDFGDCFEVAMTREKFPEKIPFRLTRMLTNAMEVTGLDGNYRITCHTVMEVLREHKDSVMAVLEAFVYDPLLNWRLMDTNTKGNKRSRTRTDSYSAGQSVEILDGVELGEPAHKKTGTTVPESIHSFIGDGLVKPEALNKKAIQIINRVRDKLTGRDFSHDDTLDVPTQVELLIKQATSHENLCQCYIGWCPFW

Hck(h) = Hck(h) (Homo sapiens (Human), UniProt P08631); design: dose or concentration left out as unconfirmed
Sequence of Hck(h) (P08631 whole entry): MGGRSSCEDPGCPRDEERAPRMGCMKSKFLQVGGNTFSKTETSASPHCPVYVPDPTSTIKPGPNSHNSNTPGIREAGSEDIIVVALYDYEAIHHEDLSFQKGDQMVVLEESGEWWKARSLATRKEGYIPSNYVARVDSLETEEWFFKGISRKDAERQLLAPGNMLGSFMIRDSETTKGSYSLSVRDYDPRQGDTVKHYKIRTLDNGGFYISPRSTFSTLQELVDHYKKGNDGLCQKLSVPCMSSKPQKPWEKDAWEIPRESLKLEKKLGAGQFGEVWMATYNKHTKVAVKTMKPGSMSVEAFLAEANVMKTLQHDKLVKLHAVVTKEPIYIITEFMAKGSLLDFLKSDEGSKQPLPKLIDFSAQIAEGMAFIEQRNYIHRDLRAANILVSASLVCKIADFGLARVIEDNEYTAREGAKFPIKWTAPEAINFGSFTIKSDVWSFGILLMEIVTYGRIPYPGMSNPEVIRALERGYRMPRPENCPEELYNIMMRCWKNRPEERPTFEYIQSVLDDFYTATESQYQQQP

CDK7/cyclinH/MAT1(h) = CDK7/cyclinH/MAT1(h) (Homo sapiens (Human), UniProt P50613); design: dose or concentration left out as unconfirmed
DCAMKL3(h) = DCAMKL3(h) (Homo sapiens (Human), UniProt Q9C098); design: dose or concentration left out as unconfirmed
Sequence of DCAMKL3(h) (Q9C098 whole entry, looked up): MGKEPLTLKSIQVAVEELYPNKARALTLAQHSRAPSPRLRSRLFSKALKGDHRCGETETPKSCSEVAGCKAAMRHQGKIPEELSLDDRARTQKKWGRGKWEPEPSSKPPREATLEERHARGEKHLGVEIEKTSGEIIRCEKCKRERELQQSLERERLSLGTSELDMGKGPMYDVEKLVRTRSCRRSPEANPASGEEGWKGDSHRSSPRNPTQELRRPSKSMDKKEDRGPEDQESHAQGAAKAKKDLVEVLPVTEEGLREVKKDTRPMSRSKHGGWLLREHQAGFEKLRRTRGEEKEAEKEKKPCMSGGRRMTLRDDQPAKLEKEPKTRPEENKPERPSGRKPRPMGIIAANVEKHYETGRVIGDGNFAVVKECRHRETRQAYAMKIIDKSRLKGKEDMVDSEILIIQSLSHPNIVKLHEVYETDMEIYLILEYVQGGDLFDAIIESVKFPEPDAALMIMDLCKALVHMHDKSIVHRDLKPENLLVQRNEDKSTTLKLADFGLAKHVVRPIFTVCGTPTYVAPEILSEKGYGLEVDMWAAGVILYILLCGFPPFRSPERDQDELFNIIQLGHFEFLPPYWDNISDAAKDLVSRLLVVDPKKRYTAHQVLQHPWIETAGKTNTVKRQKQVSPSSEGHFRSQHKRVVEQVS

Aurora-B(h) = Aurora-B(h) (Homo sapiens (Human), UniProt Q96GD4); design: dose or concentration left out as unconfirmed
ICK(h) = ICK(h) (Homo sapiens (Human), UniProt Q9UPZ9)
TGFBR1(h) = TGFBR1(h) (Homo sapiens (Human), UniProt P36897); design: dose or concentration left out as unconfirmed
PRAK(h) = PRAK(h) (Homo sapiens (Human), UniProt Q8IW41); design: dose or concentration left out as unconfirmed
KDR(h) = KDR(h) (Homo sapiens (Human), UniProt P35968); design: dose or concentration left out as unconfirmed
HPK1(h) = HPK1(h) (Homo sapiens (Human), UniProt Q92918); design: dose or concentration left out as unconfirmed
CDK5/p25(h) = CDK5/p25(h) (Homo sapiens (Human), UniProt Q00535); design: dose or concentration left out as unconfirmed
CK1γ1(h) = CK1γ1(h) (Homo sapiens (Human), UniProt Q9HCP0); design: dose or concentration left out as unconfirmed
MuSK(h) = MuSK(h) (Homo sapiens (Human), UniProt O15146); design: dose or concentration left out as unconfirmed
PDHK4(h) = PDHK4(h) (Homo sapiens (Human), UniProt Q16654); design: dose or concentration left out as unconfirmed
IGF-1R(h) = IGF-1R(h) (Homo sapiens (Human), UniProt P08069); design: dose or concentration left out as unconfirmed
Fes(h) = Fes(h) (Homo sapiens (Human), UniProt P07332); design: dose or concentration left out as unconfirmed
Sequence of Fes(h) (P07332 whole entry): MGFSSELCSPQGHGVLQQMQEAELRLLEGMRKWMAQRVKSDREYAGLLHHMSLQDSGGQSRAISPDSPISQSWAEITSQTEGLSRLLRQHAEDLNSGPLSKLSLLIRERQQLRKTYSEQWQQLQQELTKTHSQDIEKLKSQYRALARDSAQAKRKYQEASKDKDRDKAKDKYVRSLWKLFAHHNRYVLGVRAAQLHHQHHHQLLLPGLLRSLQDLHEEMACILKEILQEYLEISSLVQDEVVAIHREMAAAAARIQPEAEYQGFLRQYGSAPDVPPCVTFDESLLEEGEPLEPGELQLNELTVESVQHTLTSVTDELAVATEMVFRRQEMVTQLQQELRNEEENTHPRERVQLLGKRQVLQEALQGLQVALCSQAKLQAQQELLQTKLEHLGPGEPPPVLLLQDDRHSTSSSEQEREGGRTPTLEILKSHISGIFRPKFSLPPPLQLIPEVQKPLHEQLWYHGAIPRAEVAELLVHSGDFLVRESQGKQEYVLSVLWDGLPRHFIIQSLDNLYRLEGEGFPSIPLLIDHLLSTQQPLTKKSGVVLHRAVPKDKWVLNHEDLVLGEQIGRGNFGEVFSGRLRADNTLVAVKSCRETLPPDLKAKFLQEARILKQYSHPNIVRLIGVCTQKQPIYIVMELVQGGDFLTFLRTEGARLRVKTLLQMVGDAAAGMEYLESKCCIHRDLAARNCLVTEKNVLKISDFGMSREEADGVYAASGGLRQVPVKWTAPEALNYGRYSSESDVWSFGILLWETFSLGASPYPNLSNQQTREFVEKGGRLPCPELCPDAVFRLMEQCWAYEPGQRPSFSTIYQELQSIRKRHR

Aurora-A(h) = Aurora-A(h) (Homo sapiens (Human), UniProt O14965); design: dose or concentration left out as unconfirmed
PKCθ(h) = PKCθ(h) (Homo sapiens (Human), UniProt Q04759); design: dose or concentration left out as unconfirmed
CaMKIγ(h) = CaMKIγ(h) (Homo sapiens (Human), UniProt Q96NX5); design: dose or concentration left out as unconfirmed
PKCδ(h) = PKCδ(h) (Homo sapiens (Human), UniProt Q05655); design: dose or concentration left out as unconfirmed
Sequence of PKCδ(h) (Q05655 whole entry): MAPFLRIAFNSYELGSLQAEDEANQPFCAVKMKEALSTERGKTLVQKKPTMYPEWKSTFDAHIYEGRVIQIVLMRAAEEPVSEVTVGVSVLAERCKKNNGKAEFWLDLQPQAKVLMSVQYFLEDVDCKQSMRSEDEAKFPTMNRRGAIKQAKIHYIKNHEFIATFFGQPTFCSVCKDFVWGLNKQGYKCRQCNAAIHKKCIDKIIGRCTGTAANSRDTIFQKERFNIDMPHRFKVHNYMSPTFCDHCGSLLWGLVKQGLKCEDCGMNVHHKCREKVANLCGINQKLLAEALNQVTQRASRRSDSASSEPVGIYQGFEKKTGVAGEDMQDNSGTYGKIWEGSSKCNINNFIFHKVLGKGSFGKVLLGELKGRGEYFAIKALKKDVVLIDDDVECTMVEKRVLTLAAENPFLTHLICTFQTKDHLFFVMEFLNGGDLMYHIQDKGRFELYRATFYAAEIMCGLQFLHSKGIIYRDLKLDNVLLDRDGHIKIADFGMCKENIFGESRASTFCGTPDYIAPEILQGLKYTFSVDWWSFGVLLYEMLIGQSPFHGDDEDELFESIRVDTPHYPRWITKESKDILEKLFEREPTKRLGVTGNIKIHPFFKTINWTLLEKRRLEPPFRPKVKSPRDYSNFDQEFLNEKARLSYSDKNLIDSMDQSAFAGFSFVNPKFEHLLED

ALK6(h) = ALK6(h) (Homo sapiens (Human), UniProt O00238); design: dose or concentration left out as unconfirmed
CLK2(h) = CLK2(h) (Homo sapiens (Human), UniProt P49760); design: dose or concentration left out as unconfirmed
PI3 Kinase (p120g)(h) = PI3 Kinase (p120g)(h) (Homo sapiens (Human), UniProt P48736)
PTK5(h) = PTK5(h) (Homo sapiens (Human), UniProt P42685); design: dose or concentration left out as unconfirmed
PIP5K1g(h) = PIP5K1g(h) (Homo sapiens (Human), UniProt O60331)

## Cc1cc2c(-c3ccc(NC(=O)[C@H](N)CC(C)(C)C)cc3C)ccnc2[nH]1 [Compound F-90, (2R)-2-Amino-4,4-dimethyl-N-[3-methyl-4-(2-methyl-1H-pyrrolo[2,3-b]pyridin-4-yl)phenyl]pentanamide]
HIPK1(h)
  % Activity: 100%
MLCK(h)
  % Activity: 98%
MRCKβ(h)
  % Activity: 100%
DCAMKL1(h)
  % Activity: 95%
Rsk3(h)
  % Activity: 112%
ATM(h)
  % Activity: 103%
NEK4(h)
  % Activity: 90%
Flt3(h)
  % Activity: 84%
mTOR/FKBP12(h)
  % Activity: 120%
Hck(h)
  % Activity: 99%
CDK7/cyclinH/MAT1(h)
  % Activity: 95%
DCAMKL3(h)
  % Activity: 86%
Aurora-B(h)
  % Activity: 109%
ICK(h)
  % Activity: 99%
TGFBR1(h)
  % Activity: 103%
PRAK(h)
  % Activity: 107%
KDR(h)
  % Activity: 78%
HPK1(h)
  % Activity: 73%
CDK5/p25(h)
  % Activity: 72%
CK1γ1(h)
  % Activity: 101%
MuSK(h)
  % Activity: 96%
PDHK4(h)
  % Activity: 101%
IGF-1R(h)
  % Activity: 98%
Fes(h)
  % Activity: 111%
Aurora-A(h)
  % Activity: 97%
PKCθ(h)
  % Activity: 103%
CaMKIγ(h)
  % Activity: 110%
PKCδ(h)
  % Activity: 93%
ALK6(h)
  % Activity: 74%
CLK2(h)
  % Activity: 106%
PI3 Kinase (p120g)(h)
  % Activity: 105%
PTK5(h)
  % Activity: 90%
PIP5K1g(h)
  % Activity: 102%
